Where two headings read alike, the source gives them in different places.
How the values were obtained:
aminopeptidase B = settings: cf. U.S.P. No. 4,189,604; cited from earlier work
Acute toxicity in rat = settings: in vivo, Rat (SD)
[1] = Toxicity, general statement; settings: acute toxicity table given for reference
Acute toxicity in mouse = settings: in vivo, Mouse (ICR)
Acute toxicity in beagle = settings: dog, in vivo, male, oral, * = maximum administration level
[2] = in vivo
[3] = background statement; cited from earlier work
[4] = system: RAEB or RAEB-T patients (MDS); experiment: Oral administration of the ubenimex capsule to RAEB or RAEB-T (MDS) patients, response observed; assay type: in vivo; design: key to Response: CR: complete remission; GR: good result
tumor = settings: cf. Japanese Pat. Publication (A2) No. 9487/1985; cited from earlier work
[5] = patient 1 (RAEB-T), 30mg/day oral
[6] = patient 2 (RAEB), 30mg/day oral
[7] = patient 3 (RAEB), 30mg/day oral
[8] = patient 4 (RAEB), 30mg/day oral
[9] = patient 5 (RAEB), 30mg/day oral
[10] = patient 6 (RAEB), 30mg/day oral

CC(C)C[C@H](NC(=O)[C@@H](O)[C@H](N)Cc1ccccc1)C(=O)O [ubenimex, N-[(2S, 3R)-3-amono-2-hydroxy-4-phenylbutyryl]-(L)-leucine]
Inhibition of aminopeptidase B (aminopeptidase B): inhibits aminopeptidase B
LD50 (Acute toxicity in rat; ip, first line, sex female, intraperitoneal): 900 mg/kg
LD50 (Acute toxicity in rat; ip, second line, female, intraperitoneal): 780 mg/kg
LD50 (Acute toxicity in rat; po, first line, sex female, * = maximum administration level): > 2000 mg/kg
LD50 (Acute toxicity in rat; po, second line, female, * = maximum administration level): > 2000 mg/kg
LD50 (Acute toxicity in rat; sc, first line, sex female, subcutaneous): 1900 mg/kg
LD50 (Acute toxicity in rat; sc, second line, female, subcutaneous): 2100 mg/kg
Toxicity [1]: low toxicity
LD50 (Acute toxicity in mouse; ip, female, intraperitoneal): 190 mg/kg
LD50 (Acute toxicity in mouse; ip, male, intraperitoneal): 190 mg/kg
LD50 (Acute toxicity in mouse; po, female, * = maximum administration level): > 4000 mg/kg
LD50 (Acute toxicity in mouse; po, male, * = maximum administration level): > 4000 mg/kg
LD50 (Acute toxicity in mouse; sc, female, subcutaneous): 1900 mg/kg
LD50 (Acute toxicity in mouse; sc, male, subcutaneous): 1300 mg/kg
LD50 (Acute toxicity in beagle): > 1200 mg/kg
Accumulated toxicity upon repeated administration [2]: low accumulated toxicity
Toxicity [3]: low toxicity
Effectiveness as a remedy for MDS ([4]; 30mg/day oral): highly effective
RAEB cases with complete remission ([4]; among six effective cases): three
RAEB cases with good responses ([4]; among six effective cases): two
RAEB-T cases with complete remission ([4]; among six effective cases): one
Effect on cytopenia ([4]; anemia, thrombocytopenia and neutropenia): improve cytopenia
Amount of transfusion to the patients ([4]; human, in vivo): reduced or sometimes become unnecessary
Effect on excess blast ([4]; human, in vivo): reduce excess blast
Effect on myelodysplasia ([4]; human, in vivo): improve myelodysplasia
Patients with good results ([4]; of seven RAEB or RAEB-T patients, 30mg/day oral): six
Days till response [4, 5]: 34 days
Response [4, 5]: CR
Peripheral blood Granulocytes No. ([4]; patient 1 (RAEB-T), 30mg/day oral, after treatment (BT 1.11)): 2.94e+09 L⁻¹
Peripheral blood Hemoglobin ([4]; patient 1 (RAEB-T), 30mg/day oral, after treatment (BT 10.5)): 13.6 g/dL
Bone marrow Blast ([4]; patient 1 (RAEB-T), 30mg/day oral, after treatment (BT 22.8)): 3.2%
Peripheral blood Platelets ([4]; patient 1 (RAEB-T), 30mg/day oral, after treatment (BT 350)): 3.72e+11 L⁻¹
Duration of response ([4]; patient 1 (RAEB-T), 30mg/day oral, observation continued): 8 week
Days till response [4, 6]: 28 days
Response [4, 6]: CR
Peripheral blood Granulocytes No. ([4]; patient 2 (RAEB), 30mg/day oral, after treatment (BT 0.62)): 2.44e+09 L⁻¹
Peripheral blood Hemoglobin ([4]; patient 2 (RAEB), 30mg/day oral, after treatment (BT 7.9)): 14.4 g/dL
Bone marrow Blast ([4]; patient 2 (RAEB), 30mg/day oral, after treatment (BT 13.2)): 5.2%
Peripheral blood Platelets ([4]; patient 2 (RAEB), 30mg/day oral, after treatment (BT 81)): 2.09e+11 L⁻¹
Duration of response ([4]; patient 2 (RAEB), 30mg/day oral, ubenimex administration suspended): 11 week
Days till response [4, 7]: 97 days
Response [4, 7]: CR
Peripheral blood Granulocytes No. ([4]; patient 3 (RAEB), 30mg/day oral, after treatment (BT 0.99)): 1.75e+09 L⁻¹
Bone marrow Blast ([4]; patient 3 (RAEB), 30mg/day oral, after treatment (BT 5.2)): 0.4%
Peripheral blood Hemoglobin ([4]; patient 3 (RAEB), 30mg/day oral, after treatment (BT 6.8)): 12.3 g/dL
Peripheral blood Platelets ([4]; patient 3 (RAEB), 30mg/day oral, after treatment (BT 12)): 9.6e+10 L⁻¹
Duration of response ([4]; patient 3 (RAEB), 30mg/day oral, observation continued): 21 week
Days till response [4, 8]: 175 days
Response [4, 8]: CR
Peripheral blood Granulocytes No. ([4]; patient 4 (RAEB), 30mg/day oral, after treatment (BT 2.92)): 2.35e+09 L⁻¹
Bone marrow Blast ([4]; patient 4 (RAEB), 30mg/day oral, after treatment (BT 6.0)): 2.0%
Peripheral blood Hemoglobin ([4]; patient 4 (RAEB), 30mg/day oral, after treatment (BT 7.6)): 11.0 g/dL
Peripheral blood Platelets ([4]; patient 4 (RAEB), 30mg/day oral, after treatment (BT 30)): 8.2e+10 L⁻¹
Duration of response ([4]; patient 4 (RAEB), 30mg/day oral, observation continued): 28 week
Days till response [4, 9]: 134 days
Response [4, 9]: GR
Peripheral blood Granulocytes No. ([4]; patient 5 (RAEB), 30mg/day oral, after treatment (BT 1.22)): 2.44e+09 L⁻¹
Peripheral blood Hemoglobin ([4]; patient 5 (RAEB), 30mg/day oral, after treatment (BT 8.5)): 8.7 g/dL
Peripheral blood Platelets ([4]; patient 5 (RAEB), 30mg/day oral, after treatment (BT 21)): 1.76e+11 L⁻¹
Duration of response ([4]; patient 5 (RAEB), 30mg/day oral, observation continued): 32 week
Days till response [4, 10]: 67 days
Response [4, 10]: GR
Peripheral blood Granulocytes No. ([4]; patient 6 (RAEB), 30mg/day oral, after treatment (BT 1.45)): 2.02e+09 L⁻¹
Peripheral blood Hemoglobin ([4]; patient 6 (RAEB), 30mg/day oral, after treatment (BT 10.9)): 12.2 g/dL
Peripheral blood Platelets ([4]; patient 6 (RAEB), 30mg/day oral, after treatment (BT 42)): 1.86e+11 L⁻¹
Duration of response ([4]; patient 6 (RAEB), 30mg/day oral, observation continued): 20 week
Antitumor activities (tumor): has a antitumor activities

Reference: patent US4963588A, “Use of ubenimex for treating myelodysplastic syndrome” (priority 1989, dated 1990)
